Source: ChEMBL document CHEMBL5329203, “Target discovery of bioactive natural products with native-compound-coupled CNBr-activated Sepharose 4B beads (NCCB): Applications, mechanisms and outlooks” (Bioorg Med Chem, 2023)

Legend:
[1] = biological target: Tyrosine-protein kinase Fyn (Homo sapiens, UniProt P06241); test: Binding affinity to Fyn (unknown origin) assessed as dissociation constant
[2] = biological target: Small ribosomal subunit protein uS2 (Homo sapiens, UniProt P08865); test: Binding affinity to His-tagged Laminin receptor in human A549 cells assessed as dissociation constant by surface plasmon resonance assay
[3] = biological target: T1, Latent membrane protein 1 (Human herpesvirus 4 (strain B95-8), UniProt P03230); test: Binding affinity to Epstein Barr virus LMP1 assessed as dissociation constant; parameters: species or system human gammaherpesvirus 4
T1 sequence (P03230 whole entry): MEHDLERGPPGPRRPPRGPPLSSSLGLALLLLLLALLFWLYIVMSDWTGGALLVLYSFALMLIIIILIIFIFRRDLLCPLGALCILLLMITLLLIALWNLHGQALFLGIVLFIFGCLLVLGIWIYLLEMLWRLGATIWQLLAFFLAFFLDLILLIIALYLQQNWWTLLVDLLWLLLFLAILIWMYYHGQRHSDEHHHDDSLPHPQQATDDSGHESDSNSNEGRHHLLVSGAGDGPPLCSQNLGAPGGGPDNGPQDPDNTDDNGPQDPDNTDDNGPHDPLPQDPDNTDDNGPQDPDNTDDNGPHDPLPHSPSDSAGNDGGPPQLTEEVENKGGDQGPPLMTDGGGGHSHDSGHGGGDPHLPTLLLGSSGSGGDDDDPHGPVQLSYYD

Chain of Tyrosine-protein kinase Fyn (P06241 whole entry): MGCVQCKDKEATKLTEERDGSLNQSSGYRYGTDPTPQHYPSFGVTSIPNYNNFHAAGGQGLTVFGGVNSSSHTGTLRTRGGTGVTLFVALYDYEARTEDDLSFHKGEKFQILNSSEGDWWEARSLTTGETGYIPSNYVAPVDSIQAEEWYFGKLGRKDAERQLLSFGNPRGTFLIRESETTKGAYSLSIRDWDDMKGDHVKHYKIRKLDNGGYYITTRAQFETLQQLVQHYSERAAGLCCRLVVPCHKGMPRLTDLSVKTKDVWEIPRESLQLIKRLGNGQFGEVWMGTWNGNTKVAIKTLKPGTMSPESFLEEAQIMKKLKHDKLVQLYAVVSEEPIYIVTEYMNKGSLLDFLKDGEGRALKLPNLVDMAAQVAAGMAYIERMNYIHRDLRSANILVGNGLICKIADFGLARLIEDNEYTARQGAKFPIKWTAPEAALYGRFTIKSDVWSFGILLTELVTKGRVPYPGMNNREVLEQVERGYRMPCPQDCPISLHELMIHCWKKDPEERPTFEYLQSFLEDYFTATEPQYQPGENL

With `O=C(O[C@@H]1Cc2c(O)cc(O)cc2O[C@@H]1c1cc(O)c(O)c(O)c1)c1cc(O)c(O)c(O)c1` [EPIGALOCATECHIN GALLATE] the Kd [1] was 367 nM, the Kd [2] was 39.9 nM and the Kd [3] was 360 nM.
